Like-named read-outs stand apart in the source and are kept apart here.
Columns and labels:
[1] = target: Cp149 protein (Hepatitis B virus genotype D subtype ayw, UniProt P03146); experiment: biochemical; details: read-out: inhibition of capsid formation
[2] = system: HBV (pHBV1.3)
[3] = system: ETV-resistant HBV (rtL180M + A181C + M204V); experiment: microbe, parasite or virus in culture; assay type: cell-based; details: Hepatitis B virus
[4] = system: wild type HBV (pHBV 1.3); experiment: microbe, parasite or virus in culture; assay type: cell-based; details: read-out: HBeAg IC50
[5] = in vivo; parameters: species or system ICR mouse
[6] = system: HBV; experiment: HBV infection of HepG2-NTCP cells, secreted HBeAg by ELISA
[7] = system: wild-type HBV (genotype C); experiment: microbe, parasite or virus in culture; assay type: cell-based; details: Hepatitis B virus
[8] = system: HBV; experiment: HBVcircle transfection system in Huh7 cells; assay type: cell-based, Hepatitis B virus; details: 0.1-200 μmol/L, 48 h
[9] = system: HBV genotypes A‒D; experiment: Antiviral activity across HBV genotypes A‒D in Huh7; assay type: cell-based; details: Hepatitis B virus, Huh-7, read-out: IC50 across HBV genotypes
[10] = system: HBV; details: cited from earlier work
[11] = target: HBcAg (Hepatitis B virus genotype D subtype ayw, UniProt P03146); assay type: cell-based
[12] = Huh-7, read-out: HBeAg IC50, rt180M181C204V

HBcAg, sequence (P03146 whole entry): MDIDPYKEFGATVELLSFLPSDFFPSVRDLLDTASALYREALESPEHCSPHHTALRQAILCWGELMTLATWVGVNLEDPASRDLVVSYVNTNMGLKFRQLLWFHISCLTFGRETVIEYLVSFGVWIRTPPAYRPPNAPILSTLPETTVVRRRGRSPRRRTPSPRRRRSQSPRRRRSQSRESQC
Cp149 protein, sequence (P03146 1-149): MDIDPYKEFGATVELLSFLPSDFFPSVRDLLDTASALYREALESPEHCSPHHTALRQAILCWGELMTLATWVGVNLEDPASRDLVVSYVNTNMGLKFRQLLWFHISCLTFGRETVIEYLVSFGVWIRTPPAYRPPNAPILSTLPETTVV

With `COc1ccc(Cc2nc(NC(=O)C34CC5CC(CC(C5)C3)C4)n(C)c2Cc2ccc(OC)c(OC)c2)cc1` [11a, (Z)-N-(5-(3,4-Dimethoxybenzyl)-4-(4-methoxybenzyl)-1-methyl-1,3-dihydro-2H-imidazole-2-ylidene)adamantane-1-carboxamide] as the compound, how does the inhibition at 40 µM [1] read?
The inhibition at 40 µM was 53%.

What about the “HBV DNA vs control group” value ([2]; 50 mpk b.i.d., intraperitoneal) of the same compound?
The value was “no statistical difference”.

What about the “serum HBeAg and HBsAg levels” value ([2]; 50 or 100 mpk b.i.d.) of the same compound?
Its value is “None of these treatments altered serum HBeAg and HBsAg levels”.

And the “reduction of HBV DNA in plasma” value ([2]; 100 mpk b.i.d., intraperitoneal, Day 5)?
The value was 4 fold.

And the “antiviral effect of combination with TDF” value ([2]; TDF 2 mpk q.d. and 11a 100 mpk b.i.d.)?
Its value is “weak synergistic antiviral effects”.

And the “serum ALT and AST levels or body weight” value ([2]; control vs experimental groups)?
The value was “no significant changes”.

What about the “H&E staining in liver tissues” value ([2]; mouse, in vivo) of the same compound?
Its value is “no obvious pathological changes”.

And the “levels of HBcAg in liver, immunofluorescence” value ([2]; mouse, in vivo)?
The value was “significantly reduced the levels of HBcAg”.

What about the IC50 ([3]; Huh-7, ETV-resistant cells) of the same compound?
The IC50 was 13700 nM.

What about the IC50 [3, 12] of the same compound?
Its IC50 is 45700 nM.

And the IC50 ([4]; Hepatitis B virus)?
Its IC50 is 15200 nM.

And the half-life ([5]; both, ICR, mouse, in vivo)?
The half-life was 3 to 6.2 h.

What about the bioavailability ([5]; both, ICR, mouse, in vivo, po, 10 mg/kg) of the same compound?
The bioavailability was 24.8 to 39.2%.

What about the plasma clearance ([5]; po, range over female and male mice) of the same compound?
Its plasma clearance is 202 to 322 mL/min/kg.

And the IC50 ([6]; Hepatitis B virus, read-out: half inhibitory concentration on HBeAg)?
The IC50 was 23700 nM.

And the “inhibition of HBeAg levels in combination with IFNa2” value ([6]; IFNa2 1000 IU/mL plus 11a 10 and 30 μmol/L, HepG2-NTCP)?
The value was “significant synergistic inhibition”.

And the IC50 ([7]; Huh-7, read-out: HBeAg IC50)?
The IC50 was 12900 nM.

And the IC50 ([7]; Huh-7, wild-type cells)?
Its IC50 is 750 nM.

What about the “HBsAg and cccDNA” value [8] of the same compound?
The value was “not HBsAg and cccDNA”.

And the “secreted HBeAg” value [8]?
Its value is “inhibits HBeAg in a concentration-dependent manner”.

What about the IC50 [9] of the same compound?
Its IC50 is 100 to 1970 nM.

Which IC50 [10] does the source give for `COc1ccccc1/C(Br)=C(\NC(=O)c1ccc([N+](=O)[O-])cc1)C(=O)N1CCCCC1` [AT-130] here?
Its IC50 is 127 nM.

Which IC50 ([10]; anti-HBV potency) does the source give for `COC(=O)C1=C(C)NC(c2ncc(F)cc2F)=N[C@H]1c1ccc(F)cc1Cl` [Bay 41-4109] here?
The IC50 was 50 nM.

Which IC50 [3, 12] does the source give for `C=C1[C@H](CO)[C@@H](O)C[C@@H]1n1cnc2c(=O)[nH]c(N)nc21` [ETV, entecavir, reference compound] here?
The IC50 was greater than 100000 nM.

And the IC50 ([7]; Huh-7, read-out: HBeAg IC50)?
The IC50 was greater than 100000 nM.

With `CCOC(=O)C1=C(CN2CCO[C@H](CCC(=O)O)C2)NC(c2nccs2)=N[C@H]1c1ccc(F)cc1Br` [HEC72702, 3-((R)-4-(((R)-6-(2-Bromo-4-fluorophenyl)-5-(ethoxycarbonyl)-2-(thiazol-2-yl)-3,6-dihydropyrimidin-4-yl)methyl)morpholin-2-yl)propanoic acid] as the compound, how does the IC50 [10] read?
Its IC50 is 39 nM.

For `C[C@H](NS(=O)(=O)c1cc(C(=O)Nc2ccc(F)c(C#N)c2)n(C)c1)C(F)(F)F` [JNJ-379], which IC50 ([10]; no reference printed directly) is on record?
Its IC50 is 69 nM.

With `Cc1cc(NC(=O)c2cccc(S(=O)(=O)N[C@H]3CCOC3)c2)ccc1F` [JNJ-632] as the compound, how does the IC50 [10] read?
Its IC50 is 120 nM.

For `COC(=O)C1=C(CN2CCOCC2)NC(c2nccs2)=N[C@@H]1c1ccc(F)cc1Br` [NVR-010-001-E2], which IC50 [10] is on record?
The IC50 was 11 nM.

With `CCOC(=O)C1=C(CN2CCN3C(=O)N(CC(C)(C)C(=O)O)C[C@@H]3C2)N=C(c2nccs2)N[C@H]1c1cccc(F)c1C` [RG7907, linvencorvir] as the compound, how does the IC50 [10] read?
Its IC50 is 6 nM.

Which IC50 [10] does the source give for `O=C(NCc1cnc(C(F)(F)F)s1)c1ccc2c(c1)NC(=O)c1ccccc1S2(=O)=O` [vebicorvir] here?
The IC50 was 173 nM.

What does the source list for GLS4?
IC50 [10]: 12 nM; concentration needed to significantly inhibit HBcAg's expression [11]: above 10 μmol/L; decrease of HBcAg expression [11]: 56.4%; IC50 ([4]; Wide type (pHBV 1.3)): 252 nM
